Among the data in ChEMBL document CHEMBL3352587 are inhibition values, retold here.

In the experiment the test system is Trypanosoma cruzi. Put plainly: Inhibition of recombinant Trypanosoma cruzi trans-sialidase catalytic N-terminal domain preincubated at 1 mM for 10 mins by continuous fluorimetric assay.

Structures are written as SMILES. Activity calls are given as the source filed them. No cut-off for these calls is given here.

In general, inhibition refers to the share of the control response that was lost under treatment. On to `COC(=O)c1ccc(O[C@@H]2O[C@H](CO)[C@H](O)[C@H](OCC#N)[C@H]2O)cc1`, for which the inhibition stood at 7%.

For `COC(=O)c1ccc(O[C@@H]2O[C@H](CO)[C@H](O)[C@H](OCc3nnn[nH]3)[C@H]2O)cc1`, the inhibition result was “inactive”.

Turning to `Cc1ncc(COP(=O)(O)O)c(C=O)c1O`, the inhibition worked out at 68%.

With `COC(=O)c1ccc(O[C@@H]2O[C@H](CO)[C@H](O)[C@H](OCC(=O)O)[C@H]2O)c([N+](=O)[O-])c1`, the inhibition was determined as 21%.

In the case of `COC(=O)c1ccc(O[C@@H]2O[C@H](CO)[C@H](O)[C@H](OCC(=O)OC(C)(C)C)[C@H]2O)cc1`, the inhibition entry was “inactive”.

Consider `COC(=O)c1ccc(O[C@@H]2O[C@H](CO)[C@H](O)[C@H](O)[C@H]2O)c([N+](=O)[O-])c1`, for which the inhibition was found to be 16%.

As to `COC(=O)c1ccc(O[C@@H]2O[C@H](CO)[C@H](O)[C@H](OC)[C@H]2O)cc1`, the inhibition is 7%.

Turning to `COC(=O)c1ccc(O[C@@H]2O[C@H](CO)[C@H](O)[C@H](OC)[C@H]2O)c([N+](=O)[O-])c1`, the inhibition amounted to 16%.

In the case of `COC(=O)c1ccc(O[C@@H]2O[C@H](CO)[C@H](O)[C@H](OCc3nnn[nH]3)[C@H]2O)c([N+](=O)[O-])c1`, the inhibition is 18%.

`COC(=O)c1ccc(O[C@@H]2O[C@H](CO)[C@H](O)[C@H](OCC#N)[C@H]2O)c([N+](=O)[O-])c1`: the inhibition result was “inactive”.

Consider `COC(=O)c1ccc(O[C@@H]2O[C@H](CO)[C@H](O)[C@H](OCC(=O)OC(C)(C)C)[C@H]2O)c([N+](=O)[O-])c1`, for which the inhibition result was “inactive”.

For the molecule `COC(=O)c1ccc(O[C@@H]2O[C@H](CO)[C@H](O)[C@H](O)[C@H]2O)cc1`, the inhibition is 11%.

`CCCCCCCCO[C@@H]1O[C@H](CO)[C@H](O)[C@H](OC)[C@H]1O`: the inhibition stood at 13%.

On to `COC(=O)c1ccc(O[C@@H]2O[C@H](CO)[C@H](O)[C@H](OCC(=O)O)[C@H]2O)cc1`, for which the inhibition result was “inactive”.
